In paper PMC11187126, “Structure and dynamics of the pyroglutamylated RF-amide peptide QRFP receptor GPR103” (Nature Communications, 2024):
Changes are numbered by the printed parent chain. No end group written: not given here.

Key:
[1] = target: T1, GPR103 I26N-termA (Homo sapiens, UniProt Q96P65, I26A); test: TGFα shedding assay; Exp. level WT (1:20); type: cell-based
T1 construct: we used human full-length QRFPR-encoding plasmids; expressed in transfected cells; host or cells: HEK293 cells, pCAGGS vector
T1 sequence (Q96P65 1-431 I26A): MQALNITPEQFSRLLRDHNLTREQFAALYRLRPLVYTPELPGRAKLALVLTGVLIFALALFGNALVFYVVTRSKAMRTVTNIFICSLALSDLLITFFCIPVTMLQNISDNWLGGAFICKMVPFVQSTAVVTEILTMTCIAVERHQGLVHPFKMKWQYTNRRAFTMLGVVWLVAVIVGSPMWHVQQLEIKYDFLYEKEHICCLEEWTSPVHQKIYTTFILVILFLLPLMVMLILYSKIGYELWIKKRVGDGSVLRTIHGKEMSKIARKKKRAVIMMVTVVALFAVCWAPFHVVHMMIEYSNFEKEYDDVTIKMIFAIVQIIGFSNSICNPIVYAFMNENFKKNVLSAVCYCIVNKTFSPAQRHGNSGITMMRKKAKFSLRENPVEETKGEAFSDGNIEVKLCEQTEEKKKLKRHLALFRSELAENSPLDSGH
Procedure: For the TGFα shedding assay and the flow cytometry analysis, we used human full-length QRFPR-encoding plasmids. Specifically, GPR103 was N-terminally modified with an HA signal sequence followed by a FLAG epitope and then a flexible linker ([…]; the FLAG epitope is underlined) and inserted into the pCAGGS vector. Plasmid encoding GPR103 mutants were generated using Quickchange Site-Directed Mutagensis kit (Agilent).
The TGFα shedding assay was performed as described previously with minor modifications. Plasmid transfection was performed in a 6-well plate with a mixture of 500 ng (per well in a 6-well plate) AP-TGFα-encoding plasmid and 200 ng GPR103-encoding plasmid. After 1-day culture, the transfected cells were harvested by trypsinization, pelleted by centrifugation at 190 × g for 5 min, and washed once with 5 mM HEPES (pH 7.4)-containing Hank’s Balanced Salt Solution (HBSS). After centrifugation, the cells were resuspended in 8 mL of the HEPES-containing HBSS. The cell suspension was seeded in a 96-well culture plate (cell plate) at a volume of 90 μL (per well hereafter) and incubated in a 37 °C incubator with 5% CO2 for 30 min. […] After spinning the cell plates at 190 × g for 2 min, 80 μL of conditioned media was transferred to an empty 96-well plate (conditioned media (CM) plate). Then, 80 μL of AP reaction solution (10 mM p-nitrophenylphosphate (p-NPP), 120 mM Tris-HCl (pH 9.5), 40 mM NaCl, and 10 mM MgCl2) was dispensed into the cell plates and the CM plates. Absorbance at 405 nm of the plates was measured using a microplate reader (SpectraMax 340 PC384, Molecular Devices) before and after 1-h incubation at room temperature. Ligand-induced AP-TGFα release was calculated by subtracting spontaneous AP-TGFα release signal from ligand-induced AP-TGFα release signal. The AP-TGFα release signals were fitted to a four-parameter sigmoidal concentration–response curve, using the Prism 10 software (GraphPad Prism). For each replicate experiment, the pEC50 parameter (negative logarithmic values of EC50 values) of the individual GPR103 mutants were normalized to that of the wild-type GPR103 performed in parallel, and resulting ∆pEC50 values were used to denote ligand response activity of the mutants. […]
Exp. le vel: WT (1:5 0)Exp. le vel: WT (1:5 0)Exp. le vel: WT (1:5 0)Exp. le vel: WT (1:2 0)Exp. le vel: WT (1:2 0)Exp. le vel: WT (1:1 0) […]
L1 4N - t e r mA F2 5N - t e r mA I 2 6N - t e r mA Y 2 9N - t e r mA C 9 82 .5 7A T10 22 .6 1A Exp . l eve l: WT (1 :5)Exp . l evel : >WT (1 :1)Exp. le vel: WT (1:2 0)Exp. le vel: WT (1:2 0)Exp. le vel: WT (1:5 0)Exp . l eve l: WT (1 :1) […]
Exp. le vel: WT (1:1 0)Exp. le vel: WT (1:2 0) C 1 1 83 .2 5AExp. le vel: WT (1:5 0)Exp. le vel: WT (1:5 0)Exp. le vel: WT (1:2 0)Exp . l eve l: WT (1 :5) […]
Exp. le vel: WT (1:5 0)Exp. le vel: WT (1:1 0)Exp. le vel: WT (1:5 0) E203ECL2AExp . l evel : >WT (1 :1)Exp. le vel: WT (1:5 0)Exp. le vel: WT (1:5 0) […]
Exp . l eve l: WT (1 :1) F28Exp. le vel: WT (1:5 0) C 2 8 56 .4 7AExp. le vel: WT (1:2 0) WExp. le vel: WT (1:2 0) F28Exp. le vel: WT (1:5 0)Exp . l evel : >WT (1 :1) […]
Exp. le vel: WT (1:5 0)Exp. le vel: WT (1:5 0) C 3 2 77 .4 8AExp . l eve l: WT (1 :5)Exp . l evel : >WT (1 :1)Exp . l evel : >WT (1 :1) […]
Suppl eme nt ary Figure 1 | Mutational analysis of GPR103. […]
mutants. Data are presented as mean values ± SEM, normally n=3-5; dots), each performed in triplicate. b-d Cell-surface expression (b) and QRFP26-in-duced activation of GPR103 (c, d) were analyzed by the flow cytometry and the TGFα shedding assay, respectively. From the concentration–response curves (a), Emax (c) and ΔpEC50 (d) values relative to the wild type were calculated. Colors in the mutant bars indicate an expression level matching to that of titrated wild type. Statistical analyses were performed using the ordinary one-way ANOVA followed by Dunnett tests with the expression-matched […]

[2] = target: T2, GPR103 C98^2.57A (Homo sapiens, UniProt Q96P65, C98A); test: TGFα shedding assay; Exp. level WT (1:50); type: cell-based
T2 construct: we used human full-length QRFPR-encoding plasmids; expressed in transfected cells; host or cells: HEK293 cells, pCAGGS vector
T2 sequence (Q96P65 1-431 C98A): T1 sequence (Q96P65 1-431 I26A) with A26I, C98A

Emax ([1]; mean): 95.1% | EC50 ([1]; n = 3): 43.7 nM | Emax ([1]; n = 3): 97.6 ± 5% | Emax ([2]; mean): 86% | EC50 ([2]; n = 3): 72.4 nM | Emax ([2]; n = 3): 88.3 ± 3.6%
Substance: TSGPLGNLAEELNGYSRKKGGFSFRF-NH2 [QRFP26]
